Test results: ChEMBL document CHEMBL3045558, “Synthesis and primary evaluation of quinoxalinone derivatives as potent modulators of multidrug resistance” (Med Chem Res, 2009)

Key:
[1] = molecular target: ATP-dependent translocase ABCB1 (Homo sapiens, UniProt P08183); assay: Inhibition of p-glycoprotein in Homo sapiens (human) K562/A02 cells assessed as reduction of adriamycin IC50 for cytotoxic effect at IC10 treated 12 hr before adriamycin challenge measured after 24 to 72 hr by MTT assay; type: cell-based
Chain of ATP-dependent translocase ABCB1 (P08183 whole entry): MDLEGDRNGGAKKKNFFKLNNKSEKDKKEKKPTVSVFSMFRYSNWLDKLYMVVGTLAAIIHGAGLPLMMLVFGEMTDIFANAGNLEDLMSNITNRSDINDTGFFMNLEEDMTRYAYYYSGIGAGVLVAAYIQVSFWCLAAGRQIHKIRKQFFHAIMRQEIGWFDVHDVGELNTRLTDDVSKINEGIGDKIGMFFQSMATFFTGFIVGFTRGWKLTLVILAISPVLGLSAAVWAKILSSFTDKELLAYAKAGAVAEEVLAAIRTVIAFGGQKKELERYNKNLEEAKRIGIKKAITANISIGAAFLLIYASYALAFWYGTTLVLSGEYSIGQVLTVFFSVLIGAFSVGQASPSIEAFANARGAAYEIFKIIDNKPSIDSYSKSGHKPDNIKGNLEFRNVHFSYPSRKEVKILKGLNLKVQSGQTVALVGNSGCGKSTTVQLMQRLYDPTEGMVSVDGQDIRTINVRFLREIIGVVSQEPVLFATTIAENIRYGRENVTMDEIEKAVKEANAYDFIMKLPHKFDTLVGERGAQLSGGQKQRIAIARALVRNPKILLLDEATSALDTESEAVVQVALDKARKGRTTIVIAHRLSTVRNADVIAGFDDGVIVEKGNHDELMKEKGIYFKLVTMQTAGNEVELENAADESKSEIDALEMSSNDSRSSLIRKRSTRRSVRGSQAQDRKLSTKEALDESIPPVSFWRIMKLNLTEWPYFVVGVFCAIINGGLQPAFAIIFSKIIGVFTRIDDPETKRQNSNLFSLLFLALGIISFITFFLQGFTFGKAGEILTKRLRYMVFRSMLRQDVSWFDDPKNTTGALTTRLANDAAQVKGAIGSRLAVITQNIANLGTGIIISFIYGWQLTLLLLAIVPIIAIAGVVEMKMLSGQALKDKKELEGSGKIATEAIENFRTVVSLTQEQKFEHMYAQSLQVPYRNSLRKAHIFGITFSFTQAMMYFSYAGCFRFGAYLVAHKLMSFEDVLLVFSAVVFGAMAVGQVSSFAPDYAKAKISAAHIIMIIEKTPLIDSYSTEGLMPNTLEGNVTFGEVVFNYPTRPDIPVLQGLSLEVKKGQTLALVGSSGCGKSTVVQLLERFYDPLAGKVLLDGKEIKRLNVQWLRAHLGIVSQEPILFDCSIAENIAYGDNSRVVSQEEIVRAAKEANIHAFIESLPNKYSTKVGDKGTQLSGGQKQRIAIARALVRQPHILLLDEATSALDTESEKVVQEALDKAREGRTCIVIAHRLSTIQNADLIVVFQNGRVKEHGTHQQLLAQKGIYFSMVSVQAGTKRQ

[2] = Cytotoxicity against Homo sapiens (human) K562/A02 cells after 24 to 72 hr by MTT assay; type: cell-based
K562 = assay: Ratio of compound IC50 to adriamycin IC50 for Homo sapiens (human) K562 cells after 24 to 72 hr by MTT assay; type: functional

SMILES	fold change (FC) [1]	IC10 [2] [nM]	Ratio IC50 (K562)
COC(=O)[C@H](Cc1ccccc1)NC(=O)Cn1c(=O)c(C)nc2cc(F)c(F)cc21	1.05	2410	1.15
COC(=O)[C@H](Cc1ccccc1)NC(=O)Cn1c(=O)c(C)nc2cc(OC)c(OC)cc21	1.82	11380	1
COC(=O)[C@H](Cc1ccccc1)NC(=O)Cn1c(=O)c(C)nc2ccccc21	2.01	13190	1.25
Cc1ccc(NC(=O)Cn2c(=O)c(C)nc3ccccc32)cc1	3.55	1630	1
Cc1ccccc1NC(=O)Cn1c(=O)c(C)nc2ccccc21	4.01	1850	1.15
Cc1nc2ccccc2n(CC(=O)Nc2ccc(F)c(Cl)c2)c1=O	1.83	2910	1
Cc1nc2ccccc2n(CC(=O)Nc2ccc(F)c(F)c2)c1=O	5.3	2570	1.07
CCOC(=O)CNC(=O)Cn1c(=O)c(C)nc2ccccc21	2.37	16500	1.07
Cc1nc2ccccc2n(CC(=O)Nc2ccc(Br)cc2)c1=O	1.24	2700	0.94
COc1cc2nc(C)c(=O)n(CC(=O)Nc3ccccc3)c2cc1OC	4.59	2840	1.15
Cc1nc2cc(F)c(F)cc2n(CC(=O)Nc2ccccc2)c1=O	2.41	1520	1
Cc1nc2ccccc2n(CC(=O)Nc2ccc(Cl)c(Cl)c2)c1=O	1.62	140	1.07
COc1ccc(NC(=O)Cn2c(=O)c(C)nc3ccccc32)cc1OC	3.75	1420	1.15
Cc1nc2ccccc2n(CC(=O)Nc2ccccc2)c1=O	2.45	34100	1.07
COC(=O)[C@@H]1C[C@@H](O)CN1C(=O)Cn1c(=O)c(C)nc2ccccc21	4.82	2890	1.15
CCOC(=O)Cn1c(=O)c(C)nc2ccccc21	1.5	4060	1
CCOC(=O)CC[C@H](NC(=O)Cn1c(=O)c(C)nc2ccccc21)C(=O)OCC	4.13	2480	1.15
